Measured values reported in ChEMBL document CHEMBL4507280 (2021).

Key:
[1] = tested on: Tyrosine-protein kinase ABL1 (Homo sapiens), P00519 [T315I]; conditions: Compound concentration 1000.0 nM
[2] = target: Activin receptor type-1 (Homo sapiens) (UniProt Q04771); conditions: Compound concentration 1000.0 nM
[3] = target: Atypical kinase COQ8B, mitochondrial (Homo sapiens) (UniProt Q96D53); conditions: Compound concentration 1000.0 nM
[4] = target: Ankyrin repeat and protein kinase domain-containing protein 1 (Homo sapiens) (UniProt Q8NFD2); conditions: Compound concentration 1000.0 nM
[5] = target: Tyrosine-protein kinase Blk (Homo sapiens) (UniProt P51451); conditions: Compound concentration 1000.0 nM
[6] = target: Cytoplasmic tyrosine-protein kinase BMX (Homo sapiens) (UniProt P51813); conditions: Compound concentration 1000.0 nM
[7] = target: Serine/threonine-protein kinase BRSK2 (Homo sapiens) (UniProt Q8IWQ3); conditions: Compound concentration 1000.0 nM
[8] = target: Cyclin-dependent kinase 8 (Homo sapiens) (UniProt P49336); conditions: Compound concentration 1000.0 nM
[9] = target: Dual specificity protein kinase CLK1 (Homo sapiens) (UniProt P49759); conditions: Compound concentration 1000.0 nM
[10] = target: Dual specificity protein kinase CLK2 (Homo sapiens) (UniProt P49760); conditions: Compound concentration 1000.0 nM
[11] = target: Casein kinase I isoform epsilon (Homo sapiens) (UniProt P49674); conditions: Compound concentration 1000.0 nM
[12] = target: Casein kinase I isoform gamma-1 (Homo sapiens) (UniProt Q9HCP0); conditions: Compound concentration 1000.0 nM
[13] = target: Death-associated protein kinase 1 (Homo sapiens) (UniProt P53355); conditions: Compound concentration 1000.0 nM
[14] = tested on: Epidermal growth factor receptor (Homo sapiens), P00533 [UNDEFINED MUTATION]; conditions: Compound concentration 1000.0 nM
[15] = target: Tyrosine-protein kinase Fes/Fps (Homo sapiens) (UniProt P07332); conditions: Compound concentration 1000.0 nM
[16] = target: Fibroblast growth factor receptor 1 (Homo sapiens) (UniProt P11362); conditions: Compound concentration 1000.0 nM
[17] = tested on: eIF-2-alpha kinase GCN2 (Homo sapiens), Q9P2K8 [S808G]; conditions: Compound concentration 1000.0 nM
[18] = target: Beta-adrenergic receptor kinase 1 (Homo sapiens) (UniProt P25098); conditions: Compound concentration 1000.0 nM
[19] = target: Serine/threonine-protein kinase ICK (Homo sapiens) (UniProt Q9UPZ9); conditions: Compound concentration 1000.0 nM
[20] = target: Inhibitor of nuclear factor kappa-B kinase subunit epsilon (Homo sapiens) (UniProt Q14164); conditions: Compound concentration 1000.0 nM
[21] = target: Mitogen-activated protein kinase 8 (Homo sapiens) (UniProt P45983); conditions: Compound concentration 1000.0 nM
[22] = tested on: Mast/stem cell growth factor receptor Kit (Homo sapiens), P10721 [A829P]; conditions: Compound concentration 1000.0 nM
[23] = target: Serine/threonine-protein kinase MARK1 (Homo sapiens) (UniProt Q9P0L2); conditions: Compound concentration 1000.0 nM
[24] = target: MAP kinase-interacting serine/threonine-protein kinase 2 (Homo sapiens) (UniProt Q9HBH9); conditions: Compound concentration 1000.0 nM
[25] = target: Myosin light chain kinase family member 4 (Homo sapiens) (UniProt Q86YV6); conditions: Compound concentration 1000.0 nM
[26] = target: Serine/threonine-protein kinase 38 (Homo sapiens) (UniProt Q15208); conditions: Compound concentration 1000.0 nM
[27] = target: Serine/threonine-protein kinase Nek10 (Homo sapiens) (UniProt Q6ZWH5); conditions: Compound concentration 1000.0 nM
[28] = target: Serine/threonine-protein kinase Nek6 (Homo sapiens) (UniProt Q9HC98); conditions: Compound concentration 1000.0 nM
[29] = target: Serine/threonine-protein kinase PAK 4 (Homo sapiens) (UniProt O96013); conditions: Compound concentration 1000.0 nM
[30] = target: 1-phosphatidylinositol 3-phosphate 5-kinase (Homo sapiens) (UniProt Q9Y2I7); conditions: Compound concentration 1000.0 nM
[31] = target: Phosphatidylinositol 5-phosphate 4-kinase type-2 gamma (Homo sapiens) (UniProt Q8TBX8); conditions: Compound concentration 1000.0 nM
[32] = target: Protein kinase C delta type (Homo sapiens) (UniProt Q05655); conditions: Compound concentration 1000.0 nM
[33] = tested on: Proto-oncogene tyrosine-protein kinase receptor Ret (Homo sapiens), P07949 [V804L]; conditions: Compound concentration 1000.0 nM
[34] = target: Ribosomal protein S6 kinase alpha-2 (Homo sapiens) (UniProt Q15349); conditions: Compound concentration 1000.0 nM
[35] = target: Ribosomal protein S6 kinase alpha-6 (Homo sapiens) (UniProt Q9UK32); conditions: Compound concentration 1000.0 nM
[36] = target: Dual specificity testis-specific protein kinase 1 (Homo sapiens) (UniProt Q15569); conditions: Compound concentration 1000.0 nM
[37] = target: High affinity nerve growth factor receptor (Homo sapiens) (UniProt P04629); conditions: Compound concentration 1000.0 nM
[38] = target: Serine/threonine-protein kinase WNK4 (Homo sapiens) (UniProt Q96J92); conditions: Compound concentration 1000.0 nM
[39] = target: Serine/threonine-protein kinase 32C (Homo sapiens) (UniProt Q86UX6); conditions: Compound concentration 1000.0 nM
[40] = target: Tyrosine-protein kinase Yes (Homo sapiens) (UniProt P07947); conditions: Compound concentration 1000.0 nM
[41] = target: 5-hydroxytryptamine receptor 2B (Homo sapiens) (UniProt P41595); conditions: Compound concentration 10.0 uM
[42] = target: D(3) dopamine receptor (Homo sapiens) (UniProt P35462); conditions: Compound concentration 10.0 uM
[43] = target: Alpha-2C adrenergic receptor (Homo sapiens) (UniProt P18825); conditions: Compound concentration 10.0 uM
[44] = target: Beta-1 adrenergic receptor (Homo sapiens) (UniProt P08588); conditions: Compound concentration 10.0 uM
Rattus norvegicus = species on record: Rattus norvegicus; conditions: Compound concentration 10.0 uM
[45] = target: Sigma intracellular receptor 2 (Homo sapiens, UniProt Q5BJF2); conditions: Compound concentration 10.0 uM

Activin receptor type-1 (Homo sapiens), sequence (Q04771 whole entry): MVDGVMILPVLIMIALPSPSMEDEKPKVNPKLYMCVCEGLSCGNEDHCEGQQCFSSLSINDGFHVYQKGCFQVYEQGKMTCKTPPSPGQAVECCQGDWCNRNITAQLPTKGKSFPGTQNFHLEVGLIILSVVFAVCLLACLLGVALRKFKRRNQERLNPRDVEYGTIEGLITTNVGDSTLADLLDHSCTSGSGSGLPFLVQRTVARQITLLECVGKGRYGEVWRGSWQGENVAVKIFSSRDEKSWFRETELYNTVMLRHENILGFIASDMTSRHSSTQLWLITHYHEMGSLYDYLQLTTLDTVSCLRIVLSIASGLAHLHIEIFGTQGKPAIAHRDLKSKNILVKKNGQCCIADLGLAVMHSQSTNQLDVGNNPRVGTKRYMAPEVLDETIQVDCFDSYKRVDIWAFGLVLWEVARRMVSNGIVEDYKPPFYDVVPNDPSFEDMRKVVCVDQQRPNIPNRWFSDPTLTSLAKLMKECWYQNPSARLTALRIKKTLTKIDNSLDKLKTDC
Epidermal growth factor receptor (Homo sapiens), P00533 [UNDEFINED MUTATION], sequence (P00533 whole entry, looked up, change not shown): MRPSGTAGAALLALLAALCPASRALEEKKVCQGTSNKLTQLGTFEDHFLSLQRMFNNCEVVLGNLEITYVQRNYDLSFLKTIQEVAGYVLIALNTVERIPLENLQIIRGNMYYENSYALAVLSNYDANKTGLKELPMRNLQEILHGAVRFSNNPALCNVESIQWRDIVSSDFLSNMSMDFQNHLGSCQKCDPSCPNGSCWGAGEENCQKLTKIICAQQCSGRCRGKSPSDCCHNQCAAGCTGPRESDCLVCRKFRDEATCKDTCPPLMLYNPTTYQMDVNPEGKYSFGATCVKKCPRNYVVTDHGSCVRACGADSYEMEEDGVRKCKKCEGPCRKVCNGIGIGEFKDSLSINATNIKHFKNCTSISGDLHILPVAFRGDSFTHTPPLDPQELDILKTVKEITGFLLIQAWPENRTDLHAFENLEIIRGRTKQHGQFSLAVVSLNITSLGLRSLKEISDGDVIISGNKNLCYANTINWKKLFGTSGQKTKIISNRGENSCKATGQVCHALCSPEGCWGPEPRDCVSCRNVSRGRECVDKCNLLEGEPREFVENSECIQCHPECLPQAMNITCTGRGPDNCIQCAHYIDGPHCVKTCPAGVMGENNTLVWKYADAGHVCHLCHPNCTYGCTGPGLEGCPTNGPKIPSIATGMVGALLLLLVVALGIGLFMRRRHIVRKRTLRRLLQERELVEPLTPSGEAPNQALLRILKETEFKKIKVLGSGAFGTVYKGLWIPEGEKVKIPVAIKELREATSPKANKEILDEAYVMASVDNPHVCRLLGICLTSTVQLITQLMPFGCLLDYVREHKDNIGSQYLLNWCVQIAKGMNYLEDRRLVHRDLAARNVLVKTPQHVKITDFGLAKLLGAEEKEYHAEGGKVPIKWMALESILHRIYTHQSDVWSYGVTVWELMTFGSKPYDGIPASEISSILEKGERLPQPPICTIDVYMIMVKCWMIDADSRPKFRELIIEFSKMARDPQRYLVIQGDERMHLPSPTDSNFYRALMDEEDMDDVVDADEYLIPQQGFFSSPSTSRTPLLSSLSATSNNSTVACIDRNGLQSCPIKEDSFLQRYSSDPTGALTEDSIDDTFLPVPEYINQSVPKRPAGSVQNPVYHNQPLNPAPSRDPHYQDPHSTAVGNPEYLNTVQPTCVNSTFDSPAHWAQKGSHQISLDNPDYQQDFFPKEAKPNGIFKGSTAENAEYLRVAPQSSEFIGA
Serine/threonine-protein kinase WNK4 (Homo sapiens), sequence (Q96J92 whole entry): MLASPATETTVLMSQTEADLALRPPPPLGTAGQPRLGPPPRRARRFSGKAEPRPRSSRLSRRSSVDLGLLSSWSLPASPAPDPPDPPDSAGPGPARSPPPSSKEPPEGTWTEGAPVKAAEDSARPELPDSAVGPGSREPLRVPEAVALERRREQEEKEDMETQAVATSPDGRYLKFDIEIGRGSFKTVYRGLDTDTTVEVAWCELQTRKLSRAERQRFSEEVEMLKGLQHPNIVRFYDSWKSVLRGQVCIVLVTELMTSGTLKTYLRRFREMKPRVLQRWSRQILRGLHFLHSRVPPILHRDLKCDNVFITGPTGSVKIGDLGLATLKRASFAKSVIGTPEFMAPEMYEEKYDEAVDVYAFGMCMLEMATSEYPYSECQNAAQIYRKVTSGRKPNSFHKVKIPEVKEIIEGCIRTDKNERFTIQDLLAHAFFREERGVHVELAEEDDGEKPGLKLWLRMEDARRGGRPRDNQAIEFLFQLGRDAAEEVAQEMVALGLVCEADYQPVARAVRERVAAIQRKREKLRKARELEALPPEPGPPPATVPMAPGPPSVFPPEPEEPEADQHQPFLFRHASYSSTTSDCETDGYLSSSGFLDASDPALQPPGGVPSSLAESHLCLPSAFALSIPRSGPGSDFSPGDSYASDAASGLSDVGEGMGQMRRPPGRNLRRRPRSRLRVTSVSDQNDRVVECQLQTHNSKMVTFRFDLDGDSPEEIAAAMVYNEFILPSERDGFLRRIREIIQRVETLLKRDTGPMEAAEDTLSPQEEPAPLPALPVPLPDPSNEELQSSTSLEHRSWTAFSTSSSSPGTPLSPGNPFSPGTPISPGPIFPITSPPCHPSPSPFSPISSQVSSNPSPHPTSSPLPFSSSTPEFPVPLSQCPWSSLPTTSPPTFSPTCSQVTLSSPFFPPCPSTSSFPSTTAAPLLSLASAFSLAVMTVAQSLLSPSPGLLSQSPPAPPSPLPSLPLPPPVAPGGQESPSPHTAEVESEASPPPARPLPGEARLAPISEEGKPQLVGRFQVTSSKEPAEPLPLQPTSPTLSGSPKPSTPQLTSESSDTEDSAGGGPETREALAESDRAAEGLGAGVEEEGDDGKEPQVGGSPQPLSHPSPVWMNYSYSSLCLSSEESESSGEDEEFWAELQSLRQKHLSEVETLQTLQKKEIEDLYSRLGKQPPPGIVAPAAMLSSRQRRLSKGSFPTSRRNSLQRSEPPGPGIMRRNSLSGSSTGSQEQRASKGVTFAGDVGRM
Serine/threonine-protein kinase 38 (Homo sapiens), sequence (Q15208 2-465 limits assumed): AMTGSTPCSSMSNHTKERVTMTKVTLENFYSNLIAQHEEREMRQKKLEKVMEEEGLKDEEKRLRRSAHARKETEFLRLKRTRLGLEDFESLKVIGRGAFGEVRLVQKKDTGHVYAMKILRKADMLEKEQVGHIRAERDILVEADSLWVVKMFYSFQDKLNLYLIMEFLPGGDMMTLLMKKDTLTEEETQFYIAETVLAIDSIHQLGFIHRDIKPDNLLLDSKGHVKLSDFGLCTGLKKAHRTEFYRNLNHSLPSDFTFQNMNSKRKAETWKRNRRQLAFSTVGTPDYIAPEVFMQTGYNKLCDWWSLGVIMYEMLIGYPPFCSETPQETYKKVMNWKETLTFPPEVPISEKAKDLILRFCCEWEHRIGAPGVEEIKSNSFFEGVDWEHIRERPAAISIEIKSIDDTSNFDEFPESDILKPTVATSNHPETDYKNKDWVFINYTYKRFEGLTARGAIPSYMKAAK
Atypical kinase COQ8B, mitochondrial (Homo sapiens), sequence (Q96D53 whole entry, the tested form may be a part): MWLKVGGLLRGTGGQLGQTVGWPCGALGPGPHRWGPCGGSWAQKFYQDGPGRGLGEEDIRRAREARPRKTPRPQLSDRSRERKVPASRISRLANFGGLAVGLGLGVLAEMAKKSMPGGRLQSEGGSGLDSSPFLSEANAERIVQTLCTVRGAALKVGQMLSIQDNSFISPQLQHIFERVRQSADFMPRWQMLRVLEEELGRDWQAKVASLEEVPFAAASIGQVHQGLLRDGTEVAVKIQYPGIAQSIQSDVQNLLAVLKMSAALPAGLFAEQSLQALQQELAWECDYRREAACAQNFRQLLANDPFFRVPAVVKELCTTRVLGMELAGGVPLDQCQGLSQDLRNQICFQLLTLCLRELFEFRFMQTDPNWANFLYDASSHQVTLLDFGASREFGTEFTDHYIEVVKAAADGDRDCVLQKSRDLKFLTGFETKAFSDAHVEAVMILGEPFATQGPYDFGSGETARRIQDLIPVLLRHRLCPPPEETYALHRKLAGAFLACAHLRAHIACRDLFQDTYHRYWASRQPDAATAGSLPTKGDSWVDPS
Serine/threonine-protein kinase BRSK2 (Homo sapiens), sequence (Q8IWQ3 whole entry): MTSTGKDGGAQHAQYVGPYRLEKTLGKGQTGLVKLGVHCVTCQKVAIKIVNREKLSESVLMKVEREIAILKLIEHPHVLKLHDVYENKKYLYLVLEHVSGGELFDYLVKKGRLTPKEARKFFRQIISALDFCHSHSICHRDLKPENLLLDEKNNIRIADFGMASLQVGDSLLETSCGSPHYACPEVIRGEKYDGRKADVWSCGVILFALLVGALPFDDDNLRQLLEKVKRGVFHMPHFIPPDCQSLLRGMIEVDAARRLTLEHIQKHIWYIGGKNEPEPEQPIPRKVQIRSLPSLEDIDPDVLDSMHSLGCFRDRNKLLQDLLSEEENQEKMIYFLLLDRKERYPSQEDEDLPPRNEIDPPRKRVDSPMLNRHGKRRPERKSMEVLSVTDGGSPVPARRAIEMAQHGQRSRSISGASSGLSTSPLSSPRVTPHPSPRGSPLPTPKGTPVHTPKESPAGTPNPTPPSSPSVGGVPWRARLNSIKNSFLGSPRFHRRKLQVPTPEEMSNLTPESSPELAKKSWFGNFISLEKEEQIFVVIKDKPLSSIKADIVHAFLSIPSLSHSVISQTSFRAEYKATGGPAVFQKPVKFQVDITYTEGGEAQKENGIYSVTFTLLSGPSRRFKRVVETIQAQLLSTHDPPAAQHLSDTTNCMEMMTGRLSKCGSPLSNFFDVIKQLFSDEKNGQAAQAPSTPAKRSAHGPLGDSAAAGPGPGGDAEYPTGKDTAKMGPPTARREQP
Serine/threonine-protein kinase Nek6 (Homo sapiens), sequence (Q9HC98 whole entry): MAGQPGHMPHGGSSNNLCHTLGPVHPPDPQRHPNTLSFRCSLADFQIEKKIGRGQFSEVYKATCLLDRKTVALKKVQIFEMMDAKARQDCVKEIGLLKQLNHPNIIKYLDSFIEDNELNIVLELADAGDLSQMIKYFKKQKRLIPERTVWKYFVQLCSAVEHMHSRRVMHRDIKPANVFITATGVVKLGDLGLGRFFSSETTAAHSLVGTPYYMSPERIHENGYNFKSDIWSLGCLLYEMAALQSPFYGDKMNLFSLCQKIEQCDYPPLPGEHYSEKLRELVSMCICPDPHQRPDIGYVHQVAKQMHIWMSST

Molecule `CCC(=O)N[C@H]1CC[C@@H](C(=O)N(C)c2ccc(-c3nc4ccccc4o3)cc2)C1` [BI 99179] has a residual activity [1] of 86%, a residual activity [2] of 85% and a residual activity [3] of 74%. For the same molecule, the residual activity [4] was 66%, the residual activity [5] was 97% and the residual activity [6] was 100%. For the same molecule, the residual activity [7] was 97%, the residual activity [8] was 100% and the residual activity [9] was 93%. For the same molecule, the residual activity [10] was 95%, the residual activity [11] was 93% and the residual activity [12] was 90%. It also gave a residual activity [13] of 96%, a residual activity [14] of 97% and a residual activity [15] of 73%. It also gave a residual activity [16] of 100%, a residual activity [17] of 100% and a residual activity [18] of 66%. It also gave a residual activity [19] of 70%, a residual activity [20] of 52% and a residual activity [21] of 58%. It also gave a residual activity [22] of 57%, a residual activity [23] of 100% and a residual activity [24] of 100%. For the same molecule, the residual activity [25] was 100%, the residual activity [26] was 77% and the residual activity [27] was 80%. For the same molecule, the residual activity [28] was 85%, the residual activity [29] was 100% and the residual activity [30] was 94%. The residual activity [31] was 100%, the residual activity [32] was 100% and the residual activity [33] was 98%. It also gave a residual activity [34] of 100%, a residual activity [35] of 92% and a residual activity [36] of 100%. For the same molecule, the residual activity [37] was 75%, the residual activity [38] was 100% and the residual activity [39] was 94%. For the same molecule, the residual activity [40] was 82%, the inhibition [41] was 4.55% and the inhibition [42] was 12.1%. It also gave an inhibition [43] of -5.31%, an inhibition [44] of -4.07% and an inhibition (Rattus norvegicus) of 3.17%. The inhibition [45] was 33.6%.

In the case of `CCC(=O)N[C@@H]1CC[C@H](C(=O)N(C)c2ccc(-c3nc4ccccc4o3)cc2)C1` [BI 99990], the residual activity [1] is reported as 79%, the residual activity [2] is reported as 94% and the residual activity [3] is reported as 94%. It also gave a residual activity [4] of 100%, a residual activity [5] of 100% and a residual activity [6] of 98%. For the same molecule, the residual activity [7] was 76%, the residual activity [8] was 100% and the residual activity [9] was 100%. The residual activity [10] was 100%, the residual activity [11] was 100% and the residual activity [12] was 100%. For the same molecule, the residual activity [13] was 100%, the residual activity [14] was 100% and the residual activity [15] was 96%. The residual activity [16] was 87%, the residual activity [17] was 54% and the residual activity [18] was 100%. For the same molecule, the residual activity [19] was 92%, the residual activity [20] was 60% and the residual activity [21] was 53%. For the same molecule, the residual activity [22] was 100%, the residual activity [23] was 86% and the residual activity [24] was 100%. For the same molecule, the residual activity [25] was 100%, the residual activity [26] was 80% and the residual activity [27] was 100%. The residual activity [28] was 99%, the residual activity [29] was 100% and the residual activity [30] was 93%. It also gave a residual activity [31] of 100%, a residual activity [32] of 89% and a residual activity [33] of 100%. The residual activity [34] was 100%, the residual activity [35] was 100% and the residual activity [36] was 75%. The residual activity [37] was 100%, the residual activity [38] was 100% and the residual activity [39] was 73%. For the same molecule, the residual activity [40] was 100%, the inhibition [41] was 19.1% and the inhibition [42] was 4.36%. It also gave an inhibition [43] of -2.55%, an inhibition [44] of -4.55% and an inhibition (Rattus norvegicus) of 5.21%. It also gave an inhibition [45] of 62.9%.
